Results: patent US8481762B2, “Administration of compounds that increase glutathione levels in the melanocytes for the treatment of canities” (L'Oreal, priority 2004, dated 2013)

Test system: human melanocyte line WM35
Settings: wild-type WM35 treated 24 h before H2O2 stress; compared with clone-2 line
Experimental: To carry out the test, the cells are inoculated at the density of 2.5×10^4 cells/well and then treated with the compounds to be evaluated:
a—1:1 mixture containing 4 μg/ml of cafestol and kahweol;
After 24 h, the cells are exposed to a stress induced by H2O2.
The cell viability is measured 24 h after the stress with the aid of 2′,7′-dichlorodihydrofluoresceine diacetate (H2DCFDA; D399, Molecular Probes).

Q: Which “effect on sensitivity of the wild-type line to H2O2 induced stress” value does the source give for `Cc1c(-c2cnccn2)ssc1=S` [oltipraz] here?
A: limits the sensitivity of the cells to H2O2 induced stress
